Here are results for ten compounds from ChEMBL document CHEMBL1201862, “PubChem BioAssay data set” (2004).

Holding throughout (assay): inhibition of tumour cell growth, NCI panel, 48 h
Assay [1] relates to 786-0.
Assay [2] deals with A549.
Assay [3] has as its system CCRF-CEM.
Assay [4] deals with COLO 205.
The subject of assay [5] is EKVX.
For assay [6], the system named is HOP-62.
Assay [7] deals with LOX IMVI.
Assay [8] concerns M14.
Assay [9] has as its system MCF7.
For assay [10], the system named is MDA-MB-435.
For assay [11], the system named is MOLT-4.
The test system of assay [12] is NCI-H522.
Assay [13] deals with OVCAR-5.
Assay [14] concerns SF-539.
In assay [15] the test system is SK-MEL-28.
Assay [16] has as its system SK-MEL-2.
The test system of assay [17] is SR.
In assay [18] the test system is T47D.
Assay [19] deals with UACC-62.
Assay [20] relates to UO-31.

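48-hour exposure; five concentrations; linearly interpolated endpoints. GI50 is the concentration that inhibits growth by half.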 The source made the active and inactive calls. Cut-off read from the data, not from the text of the source: active = GI50 up to about 1.1 µM and inactive = higher.

Turning to `CCCCN1C(=O)c2c(-c3sccc3N)sc(-c3sccc3N)c2C1=O`, the GI50 in [1] was 7.85 µM (inactive); in assay [2], 24.1 µM (inactive); in assay [3] it was 4.05 µM (inactive); in assay [4] it was 15.4 µM (inactive); in assay [5], 26.9 µM (inactive); in assay [6] it was 14.7 µM (inactive). For the same compound, the GI50 in assay [7] was 30.7 µM (inactive); in assay [8], 8.38 µM (inactive); in assay [9], 11.2 µM (inactive); in assay [10], 30.8 µM (inactive); in [11], 2.8 µM (inactive); in assay [12], 14.1 µM (inactive). Besides, the GI50 in assay [13] was 21.5 µM (inactive); in assay [14], 12.4 µM (inactive); in assay [15], 7.98 µM (inactive); in assay [16], 32.7 µM (inactive); in assay [17] it was 1.98 µM (inactive); in [18] it was 14.2 µM (inactive). For the same compound, the GI50 in assay [19] was 19.3 µM (inactive); in assay [20], 6.84 µM (inactive).

As to `Cc1ccnc(Nc2[nH]c(C(=O)c3ccc(Cl)cc3)c(N)c2C(=S)Nc2ccccc2)c1`, the GI50 in [1] was 19.1 µM (inactive); in assay [2], 16 µM (inactive); in assay [3], 25.8 µM (inactive); in assay [4], 16 µM (inactive); in [5], 14.5 µM (inactive); in assay [6], 20.5 µM (inactive). Besides, the GI50 is 14.8 µM (inactive) in [7]; 16.4 µM (inactive) in [8]; 9.16 µM (inactive) in [9]; 15.7 µM (inactive) in assay [10]; 10.9 µM (inactive) in assay [11]; 12.8 µM (inactive) in assay [12]. The GI50 in [13] was 21.2 µM (inactive); in [14] it was 12.7 µM (inactive); in [15], 18.6 µM (inactive); in assay [16], 8.59 µM (inactive); in assay [17] it was 12.6 µM (inactive); in [18], 19.7 µM (inactive). Further, the GI50 in assay [19] was 10.6 µM (inactive); in [20], 18 µM (inactive).

Turning to `COC(=O)C(C)(/N=C/c1ccccc1)c1ccccc1` (stereo not given), the GI50 in [1], in assay [2], in assay [3], in assay [4], in [5] and in assay [6] was > 100 µM (inactive) throughout. For the same compound, the GI50 in [7], in [8], in assay [9], in assay [10], in assay [11] and in assay [12] was > 100 µM (inactive) each time. In addition, the GI50 in assay [13], in assay [14], in assay [15], in assay [16], in assay [17] and in [18] was > 100 µM (inactive) in each case. Also, the GI50 in assay [19] and in [20] was > 100 µM (inactive) in each case.

As for `CC(=O)OC(CC(C)C)P1(=O)N(CC(C)(C)C)[C@@H]2CCCC[C@H]2N1CC(C)(C)C` (stereo not given in full), the GI50 in assay [1] is 10.8 µM (inactive); in [2], 5.42 µM (inactive); in assay [3], 13.2 µM (inactive); in assay [4], 6 µM (inactive); in [5], 11.2 µM (inactive); in assay [6], 14.6 µM (inactive). The GI50 in [7] is 11.9 µM (inactive); in assay [8], 7.4 µM (inactive); in [9], 6.35 µM (inactive); in assay [10], 12.3 µM (inactive); in [11], 9.62 µM (inactive); in [12], 6.4 µM (inactive). Besides, the GI50 is 10.2 µM (inactive) in [13]; 10.5 µM (inactive) in assay [14]; 14.2 µM (inactive) in [15]; 7.6 µM (inactive) in assay [16]; 10.2 µM (inactive) in assay [17]; 5.36 µM (inactive) in assay [18]. In addition, the figures for the GI50 in assay [19] and in assay [20] were 10.1 µM (inactive) and 8.65 µM (inactive), respectively.

`COc1ccc(-c2nc(N)n(C)c2SSc2c(-c3ccc(OC)cc3)nc(N)n2C)cc1`: the GI50 is 5.77 µM (inactive) in assay [1]; 17.5 µM (inactive) in assay [2]; 2.76 µM (inactive) in assay [3]; 2.19 µM (inactive) in assay [4]; 20.8 µM (inactive) in [5]; 17.5 µM (inactive) in assay [6]. In addition, the GI50 is 2.03 µM (inactive) in assay [7]; 2.19 µM (inactive) in assay [8]; 8.51 µM (inactive) in assay [9]; 3.92 µM (inactive) in [10]; 2.13 µM (inactive) in assay [11]; 1.81 µM (inactive) in assay [12]. Moreover, the GI50 in assay [13] was 6.85 µM (inactive); in [14] it was 4.69 µM (inactive); in assay [15] it was 3.61 µM (inactive); in assay [16], 15.6 µM (inactive); in assay [17], 2.23 µM (inactive); in assay [18], 1.86 µM (inactive). Besides, the GI50 in assay [19] was 3.81 µM (inactive); in [20], 5.25 µM (inactive).

As for `CN(C)/C=N/c1c2c(nc3ccccc13)CCCC2`, the GI50 was > 100 µM (inactive) in assay [1]; 57.9 µM (inactive) in [2]; 44 µM (inactive) in [3]; 70.8 µM (inactive) in assay [4]; > 100 µM (inactive) in [5]; > 100 µM (inactive) in assay [6]. The GI50 in [7] is 91 µM (inactive); in assay [8] it was > 100 µM (inactive); in [9] it was 72.9 µM (inactive); in assay [10] it was > 100 µM (inactive); in assay [11], 59.8 µM (inactive); in assay [12], > 100 µM (inactive). For the same compound, the GI50 in assay [13] is > 100 µM (inactive); in [14] it was 96.4 µM (inactive); in [15], 44.2 µM (inactive); in assay [16], > 100 µM (inactive); in [17], 25.9 µM (inactive); in assay [18] it was 66.2 µM (inactive). The GI50 was > 100 µM (inactive) in assay [19] and 67.8 µM (inactive) in assay [20].

On to `CCOC(=O)NC(Nc1ccc(OC(F)(F)F)cc1)(C(F)(F)F)C(F)(F)F`, for which the GI50 in assay [1], in assay [2], in assay [3], in [4], in assay [5] and in [6] was > 100 µM (inactive) in each case. For the same compound, the GI50 in assay [7], in assay [8], in assay [9], in assay [10], in assay [11] and in [12] was > 100 µM (inactive) throughout. The GI50 in assay [13], in assay [14], in [15], in assay [16], in assay [17] and in [18] was > 100 µM (inactive) each time. The GI50 in assay [19] and in assay [20] was > 100 µM (inactive) each time.

As to `CCN(CC)CCCC(C)Nc1ccnc(/C=C/c2ccc(Cl)cc2)c1` (stereo not given), the GI50 in [1] was 1.41 µM (inactive); in assay [2], 1.91 µM (inactive); in assay [3], 1.2 µM (inactive); in [4], 1.35 µM (inactive); in assay [5], 4.2 µM (inactive); in [6], 1.84 µM (inactive). The GI50 in assay [7] was 1.26 µM (inactive); in assay [8], 1.11 µM (active); in [9] it was 2.55 µM (inactive); in assay [10], 1.56 µM (inactive); in assay [11] it was 1.22 µM (inactive); in [12], 1.63 µM (inactive). The GI50 was 2.61 µM (inactive) in assay [13]; 1.67 µM (inactive) in assay [14]; 1.7 µM (inactive) in assay [15]; 2.11 µM (inactive) in assay [16]; 2.3 µM (inactive) in assay [17]; 1.93 µM (inactive) in [18]. Also, the figures for the GI50 in [19] and in assay [20] were 1.94 µM (inactive) and 1.52 µM (inactive), respectively.

Turning to `Cc1ccc(S(=O)(=O)NCCN(CCNS(=O)(=O)c2ccc(C)cc2)S(=O)(=O)c2ccc(C)cc2)cc1`, the GI50 was 43.7 µM (inactive) in [1]; 25.7 µM (inactive) in assay [2]; > 100 µM (inactive) in assay [3]; > 100 µM (inactive) in assay [4]; 85.1 µM (inactive) in assay [5]; 47.4 µM (inactive) in [6]. The GI50 is 40.1 µM (inactive) in [7]; > 100 µM (inactive) in assay [8]; 81.7 µM (inactive) in assay [9]; 30.8 µM (inactive) in assay [10]; > 100 µM (inactive) in assay [11]; > 100 µM (inactive) in assay [12]. Further, the GI50 was > 100 µM (inactive) in assay [13]; 42.5 µM (inactive) in [14]; 43.8 µM (inactive) in assay [15]; > 100 µM (inactive) in [16]; > 100 µM (inactive) in assay [17]; > 100 µM (inactive) in assay [18]. Also, the results for the GI50 in assay [19] and in [20] were 79.1 µM (inactive) and > 100 µM (inactive), respectively.

With `C=C1C(=O)OC2C3C(=C)[C@@H](OC(C)=O)CC3C(C)=CC(OC(=O)C(C)(OC(C)=O)C(C)OC(C)=O)[C@@H]12` (stereo not given in full), the GI50 in assay [1] was 16.6 µM (inactive); in assay [2], 24.3 µM (inactive); in assay [3], 3.25 µM (inactive); in [4], 14.8 µM (inactive); in assay [5] it was 16.6 µM (inactive); in assay [6], 37.4 µM (inactive). For the same compound, the GI50 in [7] was 13.4 µM (inactive); in [8] it was 14.6 µM (inactive); in assay [9] it was 11.5 µM (inactive); in assay [10] it was 13.5 µM (inactive); in [11], 6.56 µM (inactive); in [12] it was 2.52 µM (inactive). For the same compound, the GI50 in assay [13] is 21.9 µM (inactive); in assay [14], 17.4 µM (inactive); in [15], 15.1 µM (inactive); in assay [16], 12.3 µM (inactive); in assay [17], 22.2 µM (inactive); in [18], 23.3 µM (inactive). Further, the values for the GI50 in assay [19] and in assay [20] were 13.3 µM (inactive) and 16.4 µM (inactive), respectively.
